Data taken from patent US20230330196A1, “IMMUNOSUPPRESSIVE AGENTS” (The Trustees of Columbia University in the City of New York, priority 2020, published 2023).

Tested on: allo-reactive T cells
Assay: Mixed lymphocyte reaction, B6 SPCs cocultured with irradiated BALB/c SPCs with WT or E223A mutant MMP13
Assay type: cell-based, mouse
Details: 5 days coculture
Method: Flow cytometric analysis: Single-cell suspensions were filtered through nylon mesh and stained with the following antibodies: CD3, CD4, CD8, CD25, IFN-g, PD-L1, CD11c, B220, CD11b, F4/80, and then analyzed by FCM using Fortessa.
SPCs from B6 mice were seeded at 5×10e5/well, cocultured with irradiated BALB/c SPCs (5×10e5/well) in the presence of recombinant human MMP13 (WT-MMP13) or mutant MMP13 (E223A, muMMP13) proteins for 5 days.

## mu-MMP13: catalytically-inactive E223A point mutant of MMP-13
Decreased from 21.1% without MMP13
  CFSElo CD25+ of CD4+ T cells: 3.2%
Down from 41.5% without MMP13
  CFSElo CD25+ of CD8+ T cells: 2.5%
